# Assays:
# [1] = test system: HG3 cells; assay: Cell growth curves over 12 days, HG3; type: cell-based; conditions: for anti-proliferative potency compared to PRT382: HG3
# Description: (§1) Live cells/mL were counted on days 3, 6, 10, and 12. […] The split factor was calculated at indicated time points by dividing the counted cells/mL by 3E5. Cell growth was extrapolated over time by multiplying the subsequent cell count by the previous split factor. Cell growth is plotted as fold change relative to DMSO-treated cells.
# [2] = test system: Mec-1 cells; assay: Cell growth curves over 12 days, Mec-1; type: cell-based; conditions: for anti-proliferative potency compared to PRT382: Mec-1
# Description: as §1
compound,measurement,setting,value
Nc1ncnc2c1ccn2[C@@H]1O[C@H]([C@H](O)c2ccccc2)[C@@H](O)[C@H]1O [LLY-283],Rep 1 Live Cells [Fold Change],"[1]; HG3, 1 nM, day 0",1 Fold Change
same,Rep 2 Live Cells [Fold Change],"[1]; HG3, 1 nM, day 0",1 Fold Change
same,Rep 1 Live Cells [Fold Change],"[1]; HG3, 1 nM, day 3",6.4 Fold Change
same,Rep 2 Live Cells [Fold Change],"[1]; HG3, 1 nM, day 3",6.4 Fold Change
same,Rep 1 Live Cells [Fold Change],"[1]; HG3, 1 nM, day 6",45.44 Fold Change
same,Rep 2 Live Cells [Fold Change],"[1]; HG3, 1 nM, day 6",39.4667 Fold Change
same,Rep 1 Live Cells [Fold Change],"[1]; HG3, 1 nM, day 10",270.368 Fold Change
same,Rep 2 Live Cells [Fold Change],"[1]; HG3, 1 nM, day 10",299.947 Fold Change
same,Rep 1 Live Cells [Fold Change],"[1]; HG3, 1 nM, day 12",973.325 Fold Change
same,Rep 2 Live Cells [Fold Change],"[1]; HG3, 1 nM, day 12",1379.76 Fold Change
same,Rep 1 Live Cells [Fold Change],"[1]; HG3, 10 nM, day 0",1 Fold Change
same,Rep 2 Live Cells [Fold Change],"[1]; HG3, 10 nM, day 0",1 Fold Change
same,Rep 1 Live Cells [Fold Change],"[1]; HG3, 10 nM, day 3",6.167 Fold Change
same,Rep 2 Live Cells [Fold Change],"[1]; HG3, 10 nM, day 3",6.2 Fold Change
same,Rep 1 Live Cells [Fold Change],"[1]; HG3, 10 nM, day 6",34.3278 Fold Change
same,Rep 2 Live Cells [Fold Change],"[1]; HG3, 10 nM, day 6",39.4733 Fold Change
same,Rep 1 Live Cells [Fold Change],"[1]; HG3, 10 nM, day 10",260.891 Fold Change
same,Rep 2 Live Cells [Fold Change],"[1]; HG3, 10 nM, day 10",335.523 Fold Change
same,Rep 1 Live Cells [Fold Change],"[1]; HG3, 10 nM, day 12",755.715 Fold Change
same,Rep 2 Live Cells [Fold Change],"[1]; HG3, 10 nM, day 12",1174.33 Fold Change
same,Rep 1 Live Cells [Fold Change],"[1]; HG3, 100 nM, day 0",1 Fold Change
same,Rep 2 Live Cells [Fold Change],"[1]; HG3, 100 nM, day 0",1 Fold Change
same,Rep 1 Live Cells [Fold Change],"[1]; HG3, 100 nM, day 3",5.133 Fold Change
same,Rep 2 Live Cells [Fold Change],"[1]; HG3, 100 nM, day 3",5.6 Fold Change
same,Rep 1 Live Cells [Fold Change],"[1]; HG3, 100 nM, day 6",5.048 Fold Change
same,Rep 2 Live Cells [Fold Change],"[1]; HG3, 100 nM, day 6",7.691 Fold Change
same,Rep 1 Live Cells [Fold Change],"[1]; HG3, 100 nM, day 10",6.991 Fold Change
same,Rep 2 Live Cells [Fold Change],"[1]; HG3, 100 nM, day 10",12.0359 Fold Change
same,Rep 1 Live Cells [Fold Change],"[1]; HG3, 100 nM, day 12",6.651 Fold Change
same,Rep 2 Live Cells [Fold Change],"[1]; HG3, 100 nM, day 12",12.2598 Fold Change
same,Rep 1 Live Cells [Fold Change],"[1]; HG3, 1 µM, day 0",1 Fold Change
same,Rep 2 Live Cells [Fold Change],"[1]; HG3, 1 µM, day 0",1 Fold Change
same,Rep 1 Live Cells [Fold Change],"[1]; HG3, 1 µM, day 3",4.533 Fold Change
same,Rep 2 Live Cells [Fold Change],"[1]; HG3, 1 µM, day 3",5.967 Fold Change
same,Rep 1 Live Cells [Fold Change],"[1]; HG3, 1 µM, day 6",3.083 Fold Change
same,Rep 2 Live Cells [Fold Change],"[1]; HG3, 1 µM, day 6",6.961 Fold Change
same,Rep 1 Live Cells [Fold Change],"[1]; HG3, 1 µM, day 10",2.4 Fold Change
same,Rep 2 Live Cells [Fold Change],"[1]; HG3, 1 µM, day 10",7.031 Fold Change
same,Rep 1 Live Cells [Fold Change],"[1]; HG3, 1 µM, day 12",1.832 Fold Change
same,Rep 2 Live Cells [Fold Change],"[1]; HG3, 1 µM, day 12",4.873 Fold Change
same,anti-proliferative potency compared to PRT382,[1]; high doses (1µM),similar
same,anti-proliferative potency compared to PRT382,"[1]; lower doses (10nM, 100nM)",more potent
same,Rep 1 Live Cells [Fold Change],"[2]; Mec-1, 1 nM, day 0",1 Fold Change
same,Rep 2 Live Cells [Fold Change],"[2]; Mec-1, 1 nM, day 0",1 Fold Change
same,Rep 1 Live Cells [Fold Change],"[2]; Mec-1, 1 nM, day 3",7.4 Fold Change
same,Rep 2 Live Cells [Fold Change],"[2]; Mec-1, 1 nM, day 3",6.83 Fold Change
same,Rep 1 Live Cells [Fold Change],"[2]; Mec-1, 1 nM, day 6",50.6 Fold Change
same,Rep 2 Live Cells [Fold Change],"[2]; Mec-1, 1 nM, day 6",41.9 Fold Change
same,Rep 1 Live Cells [Fold Change],"[2]; Mec-1, 1 nM, day 10",397 Fold Change
same,Rep 2 Live Cells [Fold Change],"[2]; Mec-1, 1 nM, day 10",446 Fold Change
same,Rep 1 Live Cells [Fold Change],"[2]; Mec-1, 1 nM, day 12",1480 Fold Change
same,Rep 2 Live Cells [Fold Change],"[2]; Mec-1, 1 nM, day 12",1580 Fold Change
same,Rep 1 Live Cells [Fold Change],"[2]; Mec-1, 10 nM, day 0",1 Fold Change
same,Rep 2 Live Cells [Fold Change],"[2]; Mec-1, 10 nM, day 0",1 Fold Change
same,Rep 1 Live Cells [Fold Change],"[2]; Mec-1, 10 nM, day 3",6.77 Fold Change
same,Rep 2 Live Cells [Fold Change],"[2]; Mec-1, 10 nM, day 3",6.33 Fold Change
same,Rep 1 Live Cells [Fold Change],"[2]; Mec-1, 10 nM, day 6",30.7 Fold Change
same,Rep 2 Live Cells [Fold Change],"[2]; Mec-1, 10 nM, day 6",34 Fold Change
same,Rep 1 Live Cells [Fold Change],"[2]; Mec-1, 10 nM, day 10",156 Fold Change
same,Rep 2 Live Cells [Fold Change],"[2]; Mec-1, 10 nM, day 10",260 Fold Change
same,Rep 1 Live Cells [Fold Change],"[2]; Mec-1, 10 nM, day 12",568 Fold Change
same,Rep 2 Live Cells [Fold Change],"[2]; Mec-1, 10 nM, day 12",278 Fold Change
same,Rep 1 Live Cells [Fold Change],"[2]; Mec-1, 100 nM, day 0",1 Fold Change
same,Rep 2 Live Cells [Fold Change],"[2]; Mec-1, 100 nM, day 0",1 Fold Change
same,Rep 1 Live Cells [Fold Change],"[2]; Mec-1, 100 nM, day 3",4.6 Fold Change
same,Rep 2 Live Cells [Fold Change],"[2]; Mec-1, 100 nM, day 3",4.47 Fold Change
same,Rep 1 Live Cells [Fold Change],"[2]; Mec-1, 100 nM, day 6",6.46 Fold Change
same,Rep 2 Live Cells [Fold Change],"[2]; Mec-1, 100 nM, day 6",5.94 Fold Change
same,Rep 1 Live Cells [Fold Change],"[2]; Mec-1, 100 nM, day 10",4.1 Fold Change
same,Rep 2 Live Cells [Fold Change],"[2]; Mec-1, 100 nM, day 10",4.16 Fold Change
same,Rep 1 Live Cells [Fold Change],"[2]; Mec-1, 100 nM, day 12",2.4 Fold Change
same,Rep 2 Live Cells [Fold Change],"[2]; Mec-1, 100 nM, day 12",2.8 Fold Change
same,Rep 1 Live Cells [Fold Change],"[2]; Mec-1, 1 µM, day 0",1 Fold Change
same,Rep 2 Live Cells [Fold Change],"[2]; Mec-1, 1 µM, day 0",1 Fold Change
same,Rep 1 Live Cells [Fold Change],"[2]; Mec-1, 1 µM, day 3",3.67 Fold Change
same,Rep 2 Live Cells [Fold Change],"[2]; Mec-1, 1 µM, day 3",4.57 Fold Change
same,Rep 1 Live Cells [Fold Change],"[2]; Mec-1, 1 µM, day 6",4.12 Fold Change
same,Rep 2 Live Cells [Fold Change],"[2]; Mec-1, 1 µM, day 6",5.92 Fold Change
same,Rep 1 Live Cells [Fold Change],"[2]; Mec-1, 1 µM, day 10",2.43 Fold Change
same,Rep 2 Live Cells [Fold Change],"[2]; Mec-1, 1 µM, day 10",2.13 Fold Change
same,Rep 1 Live Cells [Fold Change],"[2]; Mec-1, 1 µM, day 12",1.89 Fold Change
same,Rep 2 Live Cells [Fold Change],"[2]; Mec-1, 1 µM, day 12",1.46 Fold Change
same,anti-proliferative potency compared to PRT382,[2]; high doses (1µM),similar
same,anti-proliferative potency compared to PRT382,"[2]; lower doses (10nM, 100nM)",more potent
